{
  "source": "paper PMC5896570",
  "about": "(SLAS discovery : advancing life sciences R & D, 2016)",
  "key": {"[1]": {"molecular_target": "T1, full-length human A2AR (Homo sapiens, UniProt P29274)", "T1 sequence (P29274 whole entry)": "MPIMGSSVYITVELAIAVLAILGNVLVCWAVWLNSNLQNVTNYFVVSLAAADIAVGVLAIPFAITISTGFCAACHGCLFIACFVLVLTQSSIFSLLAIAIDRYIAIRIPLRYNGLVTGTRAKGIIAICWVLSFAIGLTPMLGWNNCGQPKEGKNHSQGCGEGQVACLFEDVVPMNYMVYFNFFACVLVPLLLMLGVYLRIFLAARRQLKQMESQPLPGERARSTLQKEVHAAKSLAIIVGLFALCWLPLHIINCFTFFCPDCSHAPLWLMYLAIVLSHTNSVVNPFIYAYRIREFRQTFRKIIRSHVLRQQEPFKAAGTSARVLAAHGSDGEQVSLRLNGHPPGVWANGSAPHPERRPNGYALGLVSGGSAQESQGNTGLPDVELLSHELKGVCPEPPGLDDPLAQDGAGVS", "assay_type": "binding", "conditions": "for receptor-ligand complexes formed at equilibrium: saturation"}, "[2]": {"molecular_target": "T1, full-length human A2AR", "assay_type": "binding", "conditions": "mean ± SEM, n=16; for Kd: read-out: Kinetic KD"}, "[3]": {"conditions": "analytical solution, fixed α 5.6%"}, "[4]": {"conditions": "numerical solution, fixed KD 22 nM"}},
  "note": "Several values for one entry are separate records, joined by “and”; a condition that tells them apart may be missing. Equal entries are not always repeated. Where two headings read alike, the source gives them in different places.",
  "data": [
    {"compound": "CCNC(=O)[C@H]1O[C@@H](n2cnc3c(N)nc(NCCc4ccc(CCC(=O)NCCNC(=S)Nc5ccc6c(c5)C(=O)OC6(c5ccc(O)cc5)c5ccc(O)cc5)cc4)nc32)[C@H](O)[C@@H]1O", "note": "[FITC-APEC, 2-[2-[4-[2-[2-[1,3-Dihydro-1,1-bis (4-hydroxyphenyl)-3-oxo-5-isobenzofuranthioureidyl]ethylaminocarbonyl]ethyl]phenyl]ethylamino]-5′--ethylcarboxamidoadenosine]", "values": [
      {"measurement": "Bmax", "setting": "[1]; equilibrium, Scatchard analysis, ± SEM, n=5", "value": "~ 5.6 % of RT and 5.6 ± 0.4 % of RT"},
      {"measurement": "receptor-ligand complexes formed at equilibrium", "setting": "[1]; receptor concentration 160 nM", "value": 9, "unit": "nM"},
      {"measurement": "receptor-ligand complexes formed at equilibrium", "setting": "[1]; receptor concentration 480 nM", "value": 25, "unit": "nM"},
      {"measurement": "Residence time", "setting": "[2]; [3]", "value": "22 ± 1.5", "unit": "min"},
      {"measurement": "koff", "setting": "[2]; [3]", "value": "7.7 ± 0.5 x10^−4 s^−1"},
      {"measurement": "kon", "setting": "[2]; [3]", "value": "1.5 ± 0.2 x10^4 (M s)^−1"},
      {"measurement": "Residence time", "setting": "[2]; [4]", "value": "47 ± 3.8", "unit": "min"},
      {"measurement": "koff", "setting": "[2]; [4]", "value": "3.6 ± 0.3 x10^−4 s^−1"},
      {"measurement": "α (Bmax/RT)", "setting": "[2]; [4]", "value": "6.8 ± 1.1", "unit": "%"},
      {"measurement": "Kd", "setting": "[2]; [3]", "value": "73 ± 15", "unit": "nM"},
      {"measurement": "Kd", "setting": "[2]; [4]", "value": "22 ± 2.3", "unit": "nM"}
    ]}
  ]
}
